pIC50: −log10 of the molar value.
Assays:
HeLa = test: Cytotoxicity against human HeLa cells by MTT assay; format: functional, cell-based
HL-60 = test: Cytotoxicity against human HL60 cells by MTT assay; format: functional, cell-based

CC(=O)O[C@@H]1[C@H]2[C@@H](C)c3ccoc3C[C@@H]2[C@@]2(C)CCCC(C)(C)[C@]2(O)[C@@H]1OC(=O)/C=C/c1ccccc1
Activity (HeLa): Dose-dependent effect | pIC50 (HeLa): 4.48 | Activity (HL-60): Dose-dependent effect | pIC50 (HL-60): 4.76

C[C@H]1C2=CC(=O)O[C@]2(O)C[C@H]2[C@H]1[C@@H](O)[C@@H](OC(=O)c1ccccc1)[C@@]1(O)C(C)(C)CCC[C@]21C
Activity (HeLa): Dose-dependent effect | pIC50 (HeLa): 4.28 | Activity (HL-60): Dose-dependent effect | pIC50 (HL-60): 4.35

C[C@H]1c2ccoc2C[C@H]2[C@H]1[C@@H](OC(=O)c1ccccc1)[C@@H](OC(=O)c1ccccc1)[C@@]1(O)C(C)(C)CCC[C@]21C
Activity (HeLa): Dose-dependent effect | pIC50 (HeLa): 4.47 | Activity (HL-60): Dose-dependent effect | pIC50 (HL-60): 4.70

COc1cc([C@@H]2c3cc4c(cc3[C@@H](O[C@@H]3O[C@@H]5CO[C@@H](C)O[C@H]5[C@H](O)[C@H]3O)[C@H]3COC(=O)[C@H]23)OCO4)cc(OC)c1O [ETOPOSIDE]
pIC50 (HeLa): 5.05

CC[C@@]1(O)C(=O)OCc2c1cc1n(c2=O)Cc2cc3ccccc3nc2-1 [CAMPTOTHECIN]
pIC50 (HeLa): 6.03 | pIC50 (HL-60): 6.23

Reference: ChEMBL document CHEMBL1157902, “New diterpenoids from Caesalpinia species and their cytotoxic activity” (Bioorg Med Chem Lett, 2010)
